Experiments:
[1] = Flow properties: Hausner Ratio (bulk density vs tapped bulk density); format: physicochemical; details: ratio between the bulk density and the tapped bulk density; product of Example 3
Method: When used herein in respect of certain compounds the term “good flow properties” is suitably characterised by the said compound having a Hausner ratio of less than or equal to 1.5, especially of less than or equal to 1.25.
Flow Properties of the Fumarate
The ratio between the bulk density and the tapped bulk density (Hausner Ratio) of the Fumarate was determined using standard methods (“Pharmaceutics—The Science of Dosage Form Design”, editor M. Aulton, 1988, published by: Churchill Livingstone).

[2] = Solid state stability of the drug substance (storage, HPLC assay for final content and degradation products); format: physicochemical; details: 1 month, product of Example 3
Method: The solid state stability of the drug substance was determined by storing approximately 1.0 g of the material in a glass bottle at a) 40° C./75% Relative Humidity (RH), open exposure, for 1 month and b) at 50° C., closed, foe 1 month. The material was assayed by HPLC for final content and degradation products in both cases.

[3] = 40° C./75% Relative Humidity (RH), open exposure

Compound: CN(CCOc1ccc(CC2SC(=O)NC2=O)cc1)c1ccccn1.O=C(O)/C=C/C(=O)O (centres unmarked) [Fumarate, 5-[4-[2-(N-methyl-N-(2-pyridyl)amino)ethoxy]benzyl]thiazolidine-2,4-dione fumarate]
- Hausner Ratio [1]: 1.0
- Solid state stability: HPLC assay [2, 3]: 100 % initial
- Solid state stability: degradation observed [2, 3]: No significant degradation observed
- Solid state stability: HPLC assay ([2]; 50° C., closed): 99 % initial
- Solid state stability: degradation observed ([2]; 50° C., closed): No significant degradation observed

Source: patent US20040014791A1, “Thiazolidinedione derivative and its use as antidiabetic” (priority 2000, published 2004)
